Source: US5688767A, “Treatment of endotoxin-associated disorders with cationic peptides” (priority 1996, dated 1997)

Experiments:
RAW 264.7 cells = experiment: RAW cell viability by Trypan blue exclusion; format: cell-based, murine; conditions: up to 50 μg
[1] = Lethality of peptide alone in mice; format: in vivo
LPS-induced endotoxemia = experiment: Protection from lethal LPS endotoxicity in galactosamine-sensitized mouse endotoxic shock model; format: in vivo, mice; conditions: for % Mortality / dead/total: LPS 10 ug
Description: The ability of CEME and CEMA to protect against LPS-induced endotoxemia was assessed in vivo. Mice (8-10 weeks old) were injected intraperitoneally with […] D-galactosamine (Dgal) to sensitize them to LPS according to the mode of Galanos (Galanos, et al., Proc. Natl. Acad. Sci., USA, 76:5939-5943, 1979), followed by 0, 50, 100, or 200 μg CEME or CEMA in 100 μl. Immediately afterwards LPS (10 or 20 μg) in 100 μl was injected.
Mice are naturally resistant to LPS. […] Endotoxic shock was induced by intraperitoneal injection of 10 or 20 μg of E. coli 0111:B4 LPS in phosphate-buffered saline (PBS), pH 7.2 into galactosamine-sensitized 8-10 week old female CD-1 mice (Galanos, C., supra; Freudenberg, M. A., Inf. Immun., 51:891, 1986). In experiments involving peptides, 50-200 μg in 100 μl sterile water injected at separate intraperitoneal sites immediately before or after LPS injection. In survival experiments, survival was monitored at 24 to 48 hours post injection. In experiments measuring TNF, blood was withdrawn by cardiac puncture at timed intervals up to 8 hours after the injections and allowed to clot prior to measurement of TNF in the serum.
In contrast when CEMA was injected at around the same time as LPS, but at separate site in the peritoneum, it protected mice in a dose dependant fashion (FIG. 17). Endotoxemia was induced with 10 μg of E. coli 0111:B4 LPS injected into the peritoneum. Subsequently 50, 100, or 200 μg (2.2, 4.4, and 8.7 mg/kg) of CEME or CEMA was injected into a separate site in the peritoneum. […] mice were assessed for each experimental point. Mortality was observed after 24 hrs.

[2] = tested on: LPS-induced TNF in RAW 264.7 cells; experiment: Preincubation of RAW cells with peptide, wash, and supernatant transfer before LPS; format: cell-based, murine; conditions: for depression of TNF induction by aspirated medium containing CEMA: fresh RAW cells
Description: In order to determine how rapidly CEMA reduced LPS-induced TNF production, E. coli 0111:B4 or Bort LPS was added at time 0 to RAW macrophages. CEMA or Polymyxin B was added at time 0, 30 and 60 minutes. Levels of TNF were measured after 6 hours. […] To confirm that CEMA was acting on LPS rather than directly upon macrophage cell lines, 20 μg of CEMA was added to RAW cells and incubated for 60 minutes prior to aspiration of the medium and washing the cells 3 times with HBSS (Hanks Buffered Salt Solution).
To ensure that the cationic peptides were interacting with the LPS rather than the cell lines, […], and after incubation at 37° C. in 5% CO2 for 60 minutes, the supernatant was removed and added to a second well of untreated RAW 264.7 cells. Fresh medium was added to the peptide-treated RAW cells and 100 ng/ml of LPS was then added to both the peptide-treated cells and those reconstituted with supernatant, and these wells assayed for TNF production after 6 hours incubation at 37° C. in 5% CO2.
Both CEME and CEMA were reproducibly able to inhibit the induction, by E. coli 0111:B4 LPS, of TNF secretion by RAW 264.7 cells (Table 10). […] Virtually the same results were obtained with E. coli Bort LPS and in preliminary experiments with P. aeruginosa strain H 103 LPS. […] In contrast the supernatants from these preincubations (which presumably contained the peptides) when added to fresh RAW 264.7 cells, were able to suppress the ability of these cells to induce TNF in response to LPS stimulation, producing only 4451 units per ml;.

[3] = MIC of common antibiotics in the presence of sub-MIC levels of cationic peptides; format: cell-based
Text: The ability of the cationic peptides to work synergistically was examined by determining the MIC values for some commonly used antibiotics in the presence of sub-MIC levels of cationic peptides (Table 4). […] This may be due to the high membrane permeabilizing activity of CEMA (see below). However, the peptides did lower the MIC of polymyxin B, possibly due to the fact that they are all taken up by the same pathway and are therefore aiding each other's uptake. Of interest is the influence that melittin has on the MIC of polymyxin B, given the weak membrane permeabilizing activity of melittin.

CC[C@H](C)[C@H](NC(=O)CNC(=O)[C@@H](NC(=O)[C@H](CCCCN)NC(=O)[C@H](CCCCN)NC(=O)[C@H](Cc1ccccc1)NC(=O)[C@H](CC(C)C)NC(=O)[C@H](CCCCN)NC(=O)[C@H](Cc1c[nH]c2ccccc12)NC(=O)[C@@H](N)CCCCN)[C@@H](C)CC)C(=O)NCC(=O)N[C@@H](C)C(=O)N[C@H](C(=O)N[C@@H](CC(C)C)C(=O)N[C@@H](CCCCN)C(=O)N[C@H](C(=O)N[C@@H](CC(C)C)C(=O)N[C@H](C(=O)N[C@H](C(=O)NCC(=O)N[C@@H](CC(C)C)C(=O)N1CCC[C@H]1C(=O)N[C@@H](C)C(=O)N[C@@H](CC(C)C)C(=O)N[C@@H](CCCCN)C(=O)N[C@@H](CC(C)C)C(=O)N[C@H](C(=O)N[C@@H](CCCCN)C(=O)O)[C@@H](C)O)[C@@H](C)O)[C@@H](C)O)C(C)C)C(C)C [CEMA]
RAW cell viability (RAW 264.7 cells): no apparent decrease
survival of mice given peptide alone ([1]; 200 μg (8.7 mg/kg) alone): survived
% Mortality ([1]; no LPS, peptide 200 ug): 0%
dead/total ([1]; no LPS, peptide 200 ug): 0/5
survival (LPS-induced endotoxemia; 10 μg E. coli 0111:B4 LPS, peptide 50 μg): 60%
survival (LPS-induced endotoxemia; 10 μg E. coli 0111:B4 LPS, peptide 100 μg): 75%
survival / mice protected (LPS-induced endotoxemia; 10 μg E. coli 0111:B4 LPS, peptide 200 μg (8.7 mg/kg)): 78%
% Mortality (LPS-induced endotoxemia; peptide 50 ug): 40%
dead/total (LPS-induced endotoxemia; peptide 50 ug): 2/5
% Mortality (LPS-induced endotoxemia; peptide 100 ug): 25%
dead/total (LPS-induced endotoxemia; peptide 100 ug): 2/8
% Mortality (LPS-induced endotoxemia; peptide 200 ug): 22%
dead/total (LPS-induced endotoxemia; peptide 200 ug): 2/9
TNF induction in washed RAW cells ([2]; 20 μg CEMA preincubated 60 minutes, washed 3 times, then 10 ng or 100 ng of LPS): 14,000-20,000 Units of TNF per ml
TNF induction in peptide-preincubated RAW 264.7 cells ([2]; CEMA 20 μg/ml preincubated 60 minutes, supernatant removed, fresh medium and 100 ng/ml E. coli 0111:B4 LPS): 19062 Units per ml
depression of TNF induction by aspirated medium containing CEMA ([2]; 10 ng E. coli Bort LPS): 98.5%
depression of TNF induction by aspirated medium containing CEMA ([2]; 100 ng E. coli Bort LPS): 75%
TNF induction in fresh RAW 264.7 cells given preincubation supernatants ([2]; supernatants from CEMA 20 μg/ml preincubations, LPS stimulation): 4451 units per ml

polymyxin B
MIC in the presence of ([3]; CEMA 0.7 μg/ml): 0.5 μg/m1
MIC in the presence of ([3]; CEMA 1.4 μg/ml): 0.12 μg/m1
MIC in the presence of ([3]; CEME 0.6 μg/ml): 0.5 μg/m1
MIC in the presence of ([3]; CEME 1.2 μg/ml): 0.25 μg/m1
MIC in the presence of ([3]; Melittin 2 μg/ml): 0.5 μg/m1
MIC in the presence of ([3]; Melittin 4 μg/ml): 0.06 μg/m1
MIC in the presence of ([3]; No peptide): 1 μg/m1
